In PMC12948223, “HSP70 Interactome‐Mediated Proteolysis Targeting Chimera (HSP70‐PROTAC) for Ferroptosis‐Driven Cancer Treatment” (Advanced Science, 2025):

System: HT1080 cells
Experiment: Cell viability CCK-8 assay
Type: cell-based, human
Settings: Homo sapiens, HT-1080, CCK-8, 48 h, read-out: IC50 (cytotoxicity)
How it was run: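 HT1080 cells seeded 24 h, then exposed to serial compound dilutions (final DMSO <0.5% v/v) for 48 or 72 h at 37 °C. Viability by CCK-8 absorbance at 450 nm; IC50 from nonlinear regression, ≥3 independent repeats.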

Q: Which IC50 does the source give for `COc1ccc(-c2nc(-c3cc(C(F)(F)F)cc(C(F)(F)F)c3)n(Cc3ccc(C(=O)NCCOCCOCCOCCn4cc(COc5ccc(N(C(=O)CCl)C(C(=O)NCCc6ccccc6)c6cccs6)cc5Cl)nn4)cc3)c2-c2ccc(OC)cc2)cc1` (stereo not shown) [GDAz-3, 4-((2-(3,5-bis(trifluoromethyl)phenyl)-4,5-bis(4-methoxyphenyl)-1H-imidazol-1-yl)methyl)-N-(2-(2-(2-(2-(4-((2-chloro-4-(2-chloro-N-(2-oxo-2-(phenethylamino)-1-(thiophen-2-yl)ethyl)acetamido)phenoxy)methyl)-1H-1,2,3-triazol-1-yl)ethoxy)ethoxy)ethoxy)ethyl)benzamide] here?
A: The IC50 was 280 nM.
